Assay results: PubChem BioAssay (NCI)
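These data come from cells grown in 96-well plates and exposed to compound for 48 hours at five concentrations. At the TGI there is no net growth.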

What was measured:
Assay in all cases: NCI tumour cell line growth inhibition, 48 h
HOP-18 NSCLC = test system: HOP-18 NSCLC
DMS 114 small cell lung = test system: DMS 114 small cell lung
DMS 273 small cell lung = test system: DMS 273 small cell lung
M19-MEL melanoma = test system: M19-MEL melanoma
SNB-78 CNS = test system: SNB-78 CNS
DLD-1 colon = test system: DLD-1 colon
KM20L2 colon = test system: KM20L2 colon
SN12K1 renal = test system: SN12K1 renal
XF 498 CNS = test system: XF 498 CNS
P388 leukemia = test system: P388 leukemia
LXFL 529 NSCLC = test system: LXFL 529 NSCLC
P388/ADR leukemia = test system: P388/ADR leukemia
RXF-631 renal = test system: RXF-631 renal

SMILES	TGI (HOP-18 NSCLC)	TGI (DMS 114 small cell lung)	TGI (DMS 273 small cell lung)	TGI (M19-MEL melanoma)	TGI (SNB-78 CNS)	TGI (DLD-1 colon)	TGI (KM20L2 colon)	TGI (SN12K1 renal)	TGI (XF 498 CNS)	TGI (P388 leukemia)	TGI (LXFL 529 NSCLC)	TGI (P388/ADR leukemia)	TGI (RXF-631 renal)
CN1CCc2[nH]c3ccccc3c2C1	> 100 µM	> 100 µM	> 100 µM	> 100 µM	> 100 µM	> 100 µM	> 100 µM	> 100 µM	> 100 µM	–	–	–	–
C[C@]12C=CC(=O)C=C1CC[C@@H]1[C@@H]2CC[C@]2(C)OC(=O)CC[C@@H]12	232 µM	> 500 µM	> 500 µM	–	> 500 µM	> 500 µM	> 470 µM	498 µM	373 µM	> 486 µM	> 500 µM	449 µM	> 500 µM
O=C(Nc1ccc(Cl)cc1)c1cc2cc(N=Nc3ccccc3Cl)ccc2oc1=O	96.9 µM	25 µM	–	53 µM	79.7 µM	32.2 µM	46.8 µM	–	67.1 µM	–	32.5 µM	–	–
Nc1ncnc2nc[nH]c12	> 250 µM	> 250 µM	> 206 µM	> 250 µM	> 158 µM	> 250 µM	> 250 µM	> 250 µM	20.8 µM	> 250 µM	–	> 250 µM	–
